Measured values: article PMC8318231, “Rate-of-Kill (RoK) assays to triage large compound sets for Chagas disease drug discovery: Application to GSK Chagas Box” (PLoS Neglected Tropical Diseases, 2021)

Key:
[1] = system: H9c2 (rat cardiomyocytes); experiment: RoK assay, number of host cells nuclei (drug-related cytotoxicity, H9c2 output, Cmin_Tox); details: H9c2 host cells
In short: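 H9c2 rat cardiomyocytes infected with T. cruzi trypomastigotes, plated in 384-well format, compound-treated and imaged over a time course. Host nuclei counted after formaldehyde fixation and DRAQ5 staining by high-content imaging. Cmin_Tox is the lowest concentration reducing host cells below 50% of initial density.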

TcCYP51 = details: formerly reported; cited from earlier work

Row | SMILES | Cmin_Tox [1] [µM] | CYP51 pIC50 (TcCYP51)
1 | COc1ccc(S(=O)(=O)NC(C)C)cc1Nc1ncc(-c2cccc(F)c2)cn1 [TCMDC-143248] | >50 | < 4
2 | CCN(CC)S(=O)(=O)c1ccc(C(=O)Nc2cc(C)nn2-c2nc(C)c(C)c(=O)[nH]2)cc1 [TCMDC-143273] | >50 | < 4
3 | COc1ccc(C(=O)Nc2cc(C(F)(F)F)ccc2N2CCOCC2)c(OC)c1 [TCMDC-143310] | >50 | < 4
4 | CC1CN(S(=O)(=O)c2ccc(NC(=O)c3cc(C4CC4)nc4c3cnn4C(C)C)cc2)CC(C)O1 (centres unmarked) [TCMDC-143200] | >50 | < 4
5 | O=C(NCCc1ccccc1Cl)c1cccn1-c1cccnc1 [TCMDC-143253] | >50 | 7.1
6 | O=C(NCc1ccncc1)c1ccccc1N1CCCN(C(=O)Cc2ccc(F)c(F)c2)CC1.O=C(O)C(F)(F)F.O=C(O)C(F)(F)F [TCMDC-143300] | >50 | 7.1
7 | COc1ccc(NS(=O)(=O)c2cc(-c3cc(C)[nH]n3)ccc2C)cc1OC [TCMDC-143194] | 18.5 | 4.4
8 | COc1ccc(C(C)(C)C)cc1S(=O)(=O)n1ccnc1 [TCMDC-143275] | >50 | 8.1
9 | O=C(O)C(F)(F)F.O=c1ccc2ccc(F)c3c2n1C[C@H]3CN1CCC(NCc2cc3ccccc3o2)CC1 [TCMDC-143301] | >50 | 4.5
10 | Cn1nccc1-c1cc(OC(CN)c2ccccc2)cnc1-c1ccco1.O=C(O)C(F)(F)F.O=C(O)C(F)(F)F (centres unmarked) [TCMDC-143221] | >50 | 7.2
11 | CS(=O)(=O)c1ccc(CC(=O)Nc2nc(-c3ccc(Cl)s3)cs2)cc1 [TCMDC-143224] | >50 | < 4
12 | O=C(NCCc1cccnc1)c1csc(-c2ccccc2)n1 [TCMDC-143203] | >50 | 7.2
13 | O=S(=O)(c1cccc(CSc2nnc(-c3ccc4c(c3)OCO4)o2)c1)N1CCOCC1 [TCMDC-143197] | >50 | 4.9
14 | COc1ccc(C(C)N(C)c2ncc3c(N)nc(N)nc3n2)cc1F (centres unmarked) [TCMDC-143298] | >50 | < 4
15 | O=C(NCC1CCCCC1)c1cc(=O)c2ccccc2o1 [TCMDC-123621] | 50.0 | < 4
16 | COc1cc(NC(=O)Nc2cccc(CNC(=O)OC3CCCCC3)c2)ccc1-c1cnco1 [TCMDC-143376] | 16.7 | 4.6
17 | CCCn1c(NC(=O)Cc2ccc(Cl)cc2)nc2ccccc21 [TCMDC-143279] | >50 | < 4
18 | CCN(C)Cc1ccc(N2CCC(NS(=O)(=O)c3ccc4c(c3)CCO4)CC2)nc1 [TCMDC-143244] | >50 | < 4
19 | COc1ccc(S(=O)(=O)Nc2ccccc2OC)cc1NC(=O)CCCc1c[nH]c2ccccc12 [TCMDC-143256] | >50 | < 4
20 | Cl.O=c1cc(NCCCNC2CCOc3c(I)cc(Cl)cc32)[nH]c2ccccc12 (centres unmarked) [TCMDC-139489] | 50.0 | 4.8
21 | COc1ccc2c(Cl)c(C(=O)N3CCC3)sc2c1Cl [TCMDC-143262] | >50 | < 4
22 | O=C(NCCc1cccnc1)c1ccc(-c2ccccc2F)o1 [TCMDC-143190] | >50 | 7.2
23 | CCC(=O)Nc1ccc(C(=O)Nc2ccccc2-c2ccccc2)cc1 [TCMDC-143286] | >50 | < 4
24 | COc1ccc(NS(=O)(=O)c2cc(NC(=O)Cc3ccc(C)cc3)ccc2N2CCOCC2)cc1 [TCMDC-143313] | 0.6 | < 4
25 | FC(F)(F)c1cc(C2CCCN(Cc3c[nH]c4ccccc34)C2)nc2ncnn12.O=C(O)C(O)C(O)C(=O)O (centres unmarked) [TCMDC-143311] | >50 | 
26 | Cc1c(C(=O)NCCCCn2ccnc2)oc2c(C)cccc12 [TCMDC-143304] | >50 | 7
27 | CS(=O)(=O)NC1CCC(Oc2cc3cnccc3cc2-c2ccsc2)CC1.O=C(O)C(F)(F)F (centres unmarked) [TCMDC-143302] | >50 | 7.6
28 | CC(=O)Nc1nc(-c2cc(C)ccc2C)c(C)s1 [TCMDC-143207] | >50 | < 4
29 | Cc1cccc(N2CCCN(Cc3c[nH]c4ccccc34)CC2)n1 [TCMDC-143185] | 5.6 | < 4
30 | Cc1cccnc1CN1CCN(CCCOc2ccc(-c3ccc(C(N)=O)cc3)cc2)CC1 [TCMDC-143291] | >50 | < 4
